# Reference: paper PMC10926604, “Discovery of a novel small molecule as CD47/SIRPα and PD-1/PD-L1 dual inhibitor for cancer immunotherapy” (Cell Communication and Signaling : CCS, 2024)
# Legend:
# [1] = system: PD-1; assay: Tyrosine phosphorylation assay of PD-1, Jurkat/CHO-K1-hPD-L1 co-culture; assay type: cell-based, human; conditions: 50 μM, stimulated Jurkat with CHO-K1-hPD-L1 cells, 30 min, Western blotting
# Experimental: Jurkat cells were stimulated with of PMA (25 ng/mL) and PHA (1 μg/mL) for 24 h. Stimulated Jurkat cells (2 × 10^6 cells/well) were co-cultured with CHO-K1-PD-L1 cells (1 × 10^7 cells/well). The co-cultures were treated with PBS, SMC18 (50 μM), or anti-human PD-1 (a17188b, Biolegend) and incubated at 37℃ for 30 min. After PBS washing, the cells were collected by centrifugation and lysed. Finally, cell lysates were collected for immunoprecipitation and Western blotting.
# In brief, the protein samples were separated by SDS-PAGE using a 4% stacking gel and an 8 ~ 10% main gel and transferred to a polyvinylidene difluoride (PVDF) membrane. The membrane was blocked with 5% milk at room temperature for 1–2 h and then incubated with anti-SIRPα (dilution 1:1000, AB8120, Abcam), anti-PD-1 (dilution 1:200, ab52587, Abcam) or anti-Phosphotyrosine (dilution 1:1000, 05–321, Millipore) dissolved in primary antibody dilution buffer overnight at 4 °C. Then the membrane was washed and incubated with appropriate HRP-coupled goat anti-rabbit IgG (D110058, Sangon Biotech) and HRP-coupled goat anti-mouse IgG (D110087, Sangon Biotech) for 1–2 h at room temperature. Finally, the membranes were exposed using an enhanced chemiluminescence (ECL) detection kit (P1030, Applygen). Results were analyzed by ImageJ software (NIH, Bethesda, MD, United States).
# [2] = target: T1, murine CD47/SIRPα (Mus musculus, UniProt P97797); assay: Cell-based blocking assay, murine CD47/SIRPα; conditions: CHO-K1-mCD47 cells, SIRPα-Fc, flow cytometry; read-out: IC50 for blocking murine CD47/SIRPα interaction
# T1 construct: purchased ACRO Biosystems SIA-M5258; host or cells: CHO-K1-mCD47 cells carry the partner (lentiviral transfection)
# Experimental: (§1) The CHO-K1 cell line with stable expression of CD47 and PD-1 was constructed previously by our group. SMC18 was serially diluted using PBS 7.2 (containing 1% DMSO) and incubated with 100 ng of SIRPα-Fc protein (human: SIA-H5251, mouse: SIA-M5258, ACRO Biosystems) and 50 ng of PD-L1-Fc protein (human: 10,084-H02H, mouse: 50,010-M02H, Sino Biological) on ice for 30 min. The mixture was then added to the corresponding CHO-K1-CD47 or CHO-K1-PD-1 cells and further incubated on ice for 30 min. Afterward, PE-conjugated anti-human IgG (Fc) antibody (A18272, eBioscience) was added. The mean fluorescence intensity (MFI) of the cells was detected using flow cytometry (BD FACSCalibur) and the blocking efficiency was calculated.
# [3] = target: T2, human CD47/SIRPα (Homo sapiens, UniProt P78324); assay: Cell-based blocking assay, human CD47/SIRPα; conditions: CHO-K1-hCD47 cells, SIRPα-Fc, flow cytometry; read-out: IC50 for blocking human CD47/SIRPα interaction
# T2 construct: purchased ACRO Biosystems SIA-H5251; host or cells: CHO-K1-hCD47 cells carry the partner (lentiviral transfection)
# Experimental: as §1
# [4] = target: T3, human PD-1/PD-L1 (Homo sapiens, UniProt Q9NZQ7); assay: Cell-based blocking assay, human PD-1/PD-L1; conditions: CHO-K1-hPD-1 cells, PD-L1-Fc, flow cytometry; read-out: IC50 for blocking human PD-1/PD-L1 interaction
# T3 construct: purchased Sino Biological 10,084-H02H; host or cells: CHO-K1-hPD-1 cells carry the partner (lentiviral transfection)
# Experimental: as §1
# [5] = system: MC38 tumor-bearing mice; assay: MC38 tumor model, SMC18 combined with radiotherapy; assay type: in vivo, mouse; conditions: one 20 Gy dose local IR + SMC18 2 mg/kg i.p. daily for 14 days
# Experimental: For the combined radiotherapy treatment model, mice were randomly grouped into four groups when the tumor volume reached approximately 40 ~ 60 mm^3. Mice were treated with a single dose of 20 Gy of local tumor irradiation (Precision X-Ray, XRad320) and daily intraperitoneal injections of SMC18 (2 mg/kg) or equivalent amount of saline for 14 days. Tumor volume was measured every other day using the formula V = 1/2 × a × b × c, where a, b, and c are the tumor's length, width, and height, respectively.
# T2 sequence (P78324 31-370 limits assumed): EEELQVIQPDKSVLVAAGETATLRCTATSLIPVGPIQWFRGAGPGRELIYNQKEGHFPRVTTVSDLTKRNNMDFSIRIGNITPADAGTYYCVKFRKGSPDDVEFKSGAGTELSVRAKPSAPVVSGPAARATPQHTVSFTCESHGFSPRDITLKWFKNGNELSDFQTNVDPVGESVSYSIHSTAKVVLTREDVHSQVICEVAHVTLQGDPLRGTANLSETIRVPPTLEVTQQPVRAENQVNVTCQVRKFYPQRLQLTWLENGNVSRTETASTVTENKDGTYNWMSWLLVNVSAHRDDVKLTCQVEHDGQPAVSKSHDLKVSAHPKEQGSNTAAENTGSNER
# T3 sequence (Q9NZQ7 19-239 limits assumed): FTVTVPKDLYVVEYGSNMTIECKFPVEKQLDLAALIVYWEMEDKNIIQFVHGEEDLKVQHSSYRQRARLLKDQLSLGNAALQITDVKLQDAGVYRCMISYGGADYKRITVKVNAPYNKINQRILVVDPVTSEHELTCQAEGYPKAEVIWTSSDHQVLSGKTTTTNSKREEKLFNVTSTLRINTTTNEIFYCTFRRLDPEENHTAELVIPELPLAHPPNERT
# T1 sequence (P97797 32-373 limits assumed): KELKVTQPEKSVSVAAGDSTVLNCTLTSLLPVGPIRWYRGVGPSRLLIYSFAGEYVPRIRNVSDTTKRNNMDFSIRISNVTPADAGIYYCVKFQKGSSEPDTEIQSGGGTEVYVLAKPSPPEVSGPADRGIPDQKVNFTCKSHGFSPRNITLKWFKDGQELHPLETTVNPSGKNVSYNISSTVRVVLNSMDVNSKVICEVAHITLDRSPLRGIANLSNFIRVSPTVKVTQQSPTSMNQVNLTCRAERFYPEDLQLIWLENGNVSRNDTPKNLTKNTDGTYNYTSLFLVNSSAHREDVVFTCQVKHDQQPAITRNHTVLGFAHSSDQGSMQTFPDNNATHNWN
structure (smiles),measurement,setting,value
Cc1cc(C)cc(NS(=O)(=O)c2ccc3[nH]cc(C(=O)NCCc4ccccc4)c(=O)c3c2)c1 [SMC18],levels of phosphorylated PD-1,[1],decreased
same,IC50,[2],58.9 ± 3.2 µM
same,IC50,[3],17.8 ± 8.2 µM
same,IC50,[4],19.7 ± 7 µM
same,"body weight of the mice, combination with radiotherapy",[5],without affecting
same,"tumor growth, combination with radiotherapy",[5],significantly inhibited
